# Laboratory results reported in PMC5446775, “Interactions of 172 plant extracts with human organic anion transporter 1 (SLC22A6) and 3 (SLC22A8): a study on herb-drug interactions” (PeerJ, 2017).
# Values joined by “and” are separate entries in the source; they are usually repeats but may differ in a detail not shown here. Identical values can stand only once.
# T1: hOAT1 (Homo sapiens, UniProt Q4U2R8)
# T1 sequence (Q4U2R8 1-563): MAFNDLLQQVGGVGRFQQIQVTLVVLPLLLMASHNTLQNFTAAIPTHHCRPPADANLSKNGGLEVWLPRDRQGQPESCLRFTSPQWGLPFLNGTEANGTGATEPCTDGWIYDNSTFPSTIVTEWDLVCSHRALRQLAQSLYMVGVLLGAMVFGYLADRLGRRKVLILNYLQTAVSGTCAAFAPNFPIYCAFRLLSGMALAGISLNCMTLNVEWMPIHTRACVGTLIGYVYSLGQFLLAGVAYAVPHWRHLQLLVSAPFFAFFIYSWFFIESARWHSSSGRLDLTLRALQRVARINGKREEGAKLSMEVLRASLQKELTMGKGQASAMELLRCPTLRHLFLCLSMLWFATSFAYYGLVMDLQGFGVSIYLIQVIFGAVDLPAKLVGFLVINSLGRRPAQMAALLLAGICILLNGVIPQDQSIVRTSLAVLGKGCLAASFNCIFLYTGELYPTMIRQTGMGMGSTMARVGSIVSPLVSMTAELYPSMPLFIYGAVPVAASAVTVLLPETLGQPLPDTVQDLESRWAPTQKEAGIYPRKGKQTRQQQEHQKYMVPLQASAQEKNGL
# T2: hOAT3 (Homo sapiens, UniProt Q8TCC7)
# T2 sequence (Q8TCC7 1-542): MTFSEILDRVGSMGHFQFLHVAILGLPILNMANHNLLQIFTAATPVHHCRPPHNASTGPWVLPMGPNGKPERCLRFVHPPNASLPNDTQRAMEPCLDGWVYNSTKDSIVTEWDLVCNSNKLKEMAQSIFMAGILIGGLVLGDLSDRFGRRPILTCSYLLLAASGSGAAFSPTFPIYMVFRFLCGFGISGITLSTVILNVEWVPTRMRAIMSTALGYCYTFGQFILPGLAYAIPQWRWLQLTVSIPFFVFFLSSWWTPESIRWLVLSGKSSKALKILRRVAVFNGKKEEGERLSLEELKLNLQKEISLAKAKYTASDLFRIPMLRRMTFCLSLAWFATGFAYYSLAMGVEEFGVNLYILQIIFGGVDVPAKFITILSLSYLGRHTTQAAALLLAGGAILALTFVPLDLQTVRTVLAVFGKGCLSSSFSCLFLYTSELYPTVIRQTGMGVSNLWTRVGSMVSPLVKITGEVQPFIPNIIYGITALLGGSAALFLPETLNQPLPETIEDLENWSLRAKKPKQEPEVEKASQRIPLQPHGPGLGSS
# B1: hOAT3 (Homo sapiens) (protein)
# chain: T2 sequence (Q8TCC7 1-542)
# B2: hOAT1 (Homo sapiens) (protein)
# chain: T1 sequence (Q4U2R8 1-563)
# Tests used:
# HEK-EV cells = experiment: Time course of 6-CF uptake in HEK-EV cells; format: cell-based; design: unit not given beside the values
# hOAT1 = target: T1, hOAT1; experiment: Time course and uptake kinetics of 6-CF in HEK-OAT1 cells
# hOAT3 = target: T2, hOAT3; experiment: Time course and uptake kinetics of 6-CF in HEK-OAT3 cells
# [1] = substrate: O=C(O)c1ccc(C(=O)O)c(-c2c3ccc(=O)cc-3oc3cc(O)ccc23)c1; experiment: cells, lysate or membranes; conditions: pH 7.2
# [2] = other: HEK-OAT3, 6-CF 0–500 μM, 10 min
# [3] = other: HEK-OAT1, 6-CF 0–500 μM, 4 min
molecule,measurement,setting,value
"O=C(O)c1ccc(C(=O)O)c(-c2c3ccc(=O)cc-3oc3cc(O)ccc23)c1 [6-CF, 6-Carboxyfluorescein]","6-CF uptake, time course (replicates)","HEK-EV cells; EV (run with HEK-OAT3), 0 min",-0.296 and -0.1638 and -0.3041
same,"6-CF uptake, time course (replicates)","HEK-EV cells; EV (run with HEK-OAT3), 1 min",0.1864 and 0.1215 and 0.1926
same,"6-CF uptake, time course (replicates)","HEK-EV cells; EV (run with HEK-OAT3), 3 min",1.062 and 1.738 and 0.6624
same,"6-CF uptake, time course (replicates)","HEK-EV cells; EV (run with HEK-OAT3), 5 min",1.6 and 1.946 and 1.9
same,"6-CF uptake, time course (replicates)","HEK-EV cells; EV (run with HEK-OAT3), 7 min",3.081 and 4.38 and 4.257
same,"6-CF uptake, time course (replicates)","HEK-EV cells; EV (run with HEK-OAT3), 10 min",12.29 and 7.712 and 11.67
same,"6-CF uptake, time course (replicates)","HEK-EV cells; EV (run with HEK-OAT3), 15 min",22.75 and 12.81 and 21.0992
same,"6-CF uptake, time course (replicates)","HEK-EV cells; EV (run with HEK-OAT3), 20 min",40.6 and 70.13 and 42.87
same,"6-CF uptake, time course (replicates)","HEK-EV cells; HEK-EV (run with HEK-OAT1), 1 min",2.029 and 2.127 and 1.449
same,"6-CF uptake, time course (replicates)","HEK-EV cells; HEK-EV (run with HEK-OAT1), 2 min",3.517 and 2.496
same,"6-CF uptake, time course (replicates)","HEK-EV cells; HEK-EV (run with HEK-OAT1), 4 min",3.274 and 1.899
same,"6-CF uptake, time course (replicates)","HEK-EV cells; HEK-EV (run with HEK-OAT1), 6 min",2.9 and 5.179 and 2.231
same,"6-CF uptake, time course (replicates)","HEK-EV cells; HEK-EV (run with HEK-OAT1), 8 min",2.807 and 2.226 and 2.134
same,"6-CF uptake, time course (replicates)","HEK-EV cells; HEK-EV (run with HEK-OAT1), 10 min",6.849 and 3.392
same,"6-CF uptake, time course (replicates)","HEK-EV cells; HEK-EV (run with HEK-OAT1), 15 min",2.156 and 2.367 and 2.88
same,"6-CF uptake, saturation curve (replicates)","hOAT1; HEK-OAT1, 6-CF 0.4882813 uM",7.173 and 7.446 and 6.987
same,"6-CF uptake, saturation curve (replicates)","hOAT1; HEK-OAT1, 6-CF 0.9765625 uM",12.8274 and 13.23 and 13
same,"6-CF uptake, saturation curve (replicates)","hOAT1; HEK-OAT1, 6-CF 1.953125 uM",27.87 and 28.3406 and 28.05
same,"6-CF uptake, saturation curve (replicates)","hOAT1; HEK-OAT1, 6-CF 3.90625 uM",46.16 and 53.71 and 47.47
same,"6-CF uptake, saturation curve (replicates)","hOAT1; HEK-OAT1, 6-CF 7.8125 uM",70.1 and 79.19 and 68.4603
same,"6-CF uptake, saturation curve (replicates)","hOAT1; HEK-OAT1, 6-CF 15.625 uM",99.74 and 104.681 and 93.41
same,"6-CF uptake, saturation curve (replicates)","hOAT1; HEK-OAT1, 6-CF 31.25 uM",121.9009 and 125.5377 and 115.7964
same,"6-CF uptake, saturation curve (replicates)","hOAT1; HEK-OAT1, 6-CF 62.5 uM",137.2491 and 143.8246 and 138.2214
same,"6-CF uptake, saturation curve (replicates)","hOAT1; HEK-OAT1, 6-CF 125 uM",148.3736 and 150.9828 and 144.0527
same,"6-CF uptake, saturation curve (replicates)","hOAT1; HEK-OAT1, 6-CF 250 uM",164.0673 and 159.2171 and 152.7382
same,"6-CF uptake, saturation curve (replicates)","hOAT1; HEK-OAT1, 6-CF 500 uM",180.965 and 184.434 and 169.8854
same,"6-CF uptake, time course (replicates)","hOAT1; HEK-OAT1, 1 min",103.0408 and 111.2811 and 116.9642
same,"6-CF uptake, time course (replicates)","hOAT1; HEK-OAT1, 2 min",184.2101 and 188.6327 and 203.3025
same,"6-CF uptake, time course (replicates)","hOAT1; HEK-OAT1, 4 min",263.4748 and 273.8167 and 274.8526
same,"6-CF uptake, time course (replicates)","hOAT1; HEK-OAT1, 6 min",366.3584 and 347.2089 and 351.4604
same,"6-CF uptake, time course (replicates)","hOAT1; HEK-OAT1, 8 min",433.3665 and 398.0952 and 430.7222
same,"6-CF uptake, time course (replicates)","hOAT1; HEK-OAT1, 10 min",468.8556 and 433.6342 and 503.1246
same,"6-CF uptake, time course (replicates)","hOAT1; HEK-OAT1, 15 min",515.439 and 498.8523
same,"6-CF uptake, time course (replicates)","hOAT3; HEK-OAT3, 0 min",-0.2934 and -0.3139 and -0.3557
same,"6-CF uptake, saturation curve (replicates)","hOAT3; HEK-OAT3, 6-CF 0.4882813 uM",0.3918 and 0.3329 and 0.4388
same,"6-CF uptake, saturation curve (replicates)","hOAT3; HEK-OAT3, 6-CF 0.9765625 uM",0.698 and 0.5037 and 0.6877
same,"6-CF uptake, saturation curve (replicates)","hOAT3; HEK-OAT3, 6-CF 1.953125 uM",1.795 and 1.575 and 1.458
same,"6-CF uptake, saturation curve (replicates)","hOAT3; HEK-OAT3, 6-CF 3.90625 uM",4.35 and 4.472 and 4.585
same,"6-CF uptake, saturation curve (replicates)","hOAT3; HEK-OAT3, 6-CF 7.8125 uM",6.975 and 7.312 and 7.453
same,"6-CF uptake, saturation curve (replicates)","hOAT3; HEK-OAT3, 6-CF 15.625 uM",11.68 and 13.8 and 13.42
same,"6-CF uptake, saturation curve (replicates)","hOAT3; HEK-OAT3, 6-CF 31.25 uM",16.87 and 19.83 and 17.42
same,"6-CF uptake, saturation curve (replicates)","hOAT3; HEK-OAT3, 6-CF 62.5 uM",24.87 and 28.11 and 27.05
same,"6-CF uptake, saturation curve (replicates)","hOAT3; HEK-OAT3, 6-CF 125 uM",31.12 and 34.21 and 34.22
same,"6-CF uptake, saturation curve (replicates)","hOAT3; HEK-OAT3, 6-CF 250 uM",38.59 and 48.68 and 49.93
same,"6-CF uptake, saturation curve (replicates)","hOAT3; HEK-OAT3, 6-CF 500 uM",59.67 and 68.36 and 60.32
same,"6-CF uptake, time course (replicates)","hOAT3; HEK-OAT3, 1 min",15.96 and 14.63 and 12.89
same,"6-CF uptake, time course (replicates)","hOAT3; HEK-OAT3, 3 min",23.66 and 23.83 and 22.4238
same,"6-CF uptake, time course (replicates)","hOAT3; HEK-OAT3, 5 min",30.9 and 31.16 and 28.05
same,"6-CF uptake, time course (replicates)","hOAT3; HEK-OAT3, 7 min",39.99 and 36.19 and 41.91
same,"6-CF uptake, time course (replicates)","hOAT3; HEK-OAT3, 10 min",50.24 and 52.458 and 60.541
same,"6-CF uptake, time course (replicates)","hOAT3; HEK-OAT3, 15 min",52.72 and 56.05 and 66.23
same,"6-CF uptake, time course (replicates)","hOAT3; HEK-OAT3, 20 min",78 and 76.09 and 111.922
B1,Km,[1]; [2],112.9 ± 14.24 µM
same,Vmax,[1]; [2],71.89 ± 3.42 pmol/mg protein/min
B2,Km,[1]; [3],10.86 ± 0.64 µM
same,Vmax,[1]; [3],168.5 ± 2.27 pmol/mg protein/min
